One experiment has as its target T1, STAT4 (Homo sapiens, UniProt Q14765).
T1 sequence (Q14765 1-748): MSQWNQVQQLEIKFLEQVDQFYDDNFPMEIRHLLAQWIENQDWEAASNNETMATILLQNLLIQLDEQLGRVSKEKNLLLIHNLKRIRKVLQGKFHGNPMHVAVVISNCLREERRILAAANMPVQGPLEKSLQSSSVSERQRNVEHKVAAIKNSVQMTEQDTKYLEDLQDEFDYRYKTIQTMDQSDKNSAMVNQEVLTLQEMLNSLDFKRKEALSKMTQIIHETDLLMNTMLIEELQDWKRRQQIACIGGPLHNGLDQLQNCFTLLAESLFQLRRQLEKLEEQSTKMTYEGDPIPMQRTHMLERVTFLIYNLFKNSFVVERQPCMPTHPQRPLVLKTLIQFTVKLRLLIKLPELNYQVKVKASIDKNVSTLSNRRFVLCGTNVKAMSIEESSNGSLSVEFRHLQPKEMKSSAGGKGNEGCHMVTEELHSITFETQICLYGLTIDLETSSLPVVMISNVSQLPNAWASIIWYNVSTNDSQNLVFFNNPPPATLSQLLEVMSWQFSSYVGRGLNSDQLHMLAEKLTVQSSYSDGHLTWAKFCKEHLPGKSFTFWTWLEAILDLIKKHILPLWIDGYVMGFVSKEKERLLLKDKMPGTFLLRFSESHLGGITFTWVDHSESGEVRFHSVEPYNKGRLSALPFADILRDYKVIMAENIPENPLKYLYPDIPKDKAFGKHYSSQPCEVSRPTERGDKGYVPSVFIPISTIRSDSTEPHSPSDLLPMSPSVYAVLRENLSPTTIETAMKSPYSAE
Description: Competitive fluorescence polarization (FP) assay, STAT4. Format: binding. As for the experimental part:
(§1) Screening of chemical libraries […]
(§2) PPADS was purchased […]
(§3) from Sigma-Aldrich, and iso-PPADS from Bio-Techne.
(§4) Fluorescence polarization assays
(§5) Competitive fluorescence polarization (FP) assays for STAT1,[2] STAT3,[3] STAT4,[4] STAT5a,[5] STAT5b[6] and STAT6[1] were performed as previously described. Briefly, peptide binding to proteins was analyzed using the following carboxyfluorescein (CF) -labelled pepti des at a concentration of 10 nM: STAT1: 5-CF-GpYDKPHVL-OH, STAT3: 5-CF-GpYLPQTV -NH2, STAT4: 5-CF-GpYLPQNID-OH, STAT5a and STAT5b: 5-CF-GpYLVLDKW-OH, STAT6: 5- […]
(§6) CFGp[…]-OH. Proteins were used at a final concentration representing the approximate Kd value for binding of the corresponding peptide to the protein, namely 65 nM for STAT1, 65 nM for STAT3, 35 nM for STAT4, 125 nM for STAT5a, 65 nM for STAT5b and 75 nM for STAT6. Assays were carried out in buffer containing 10 mM Tris/HCl, 50 mM NaCl, 1 mM EDTA, 0.1% NP-40 substitute and 2% DMSO, with 1 mM reducing agent where […]
applicable, at pH 8.0. […]
before adding peptide and incubating for a further 1 h. FP was measured using an Infinite F500 plate reader (Tecan) and measurements were converted into percent inhibition according to […]
For orientation: In fluorescence polarisation assays a small probe gives low polarisation when free and higher when bound to something large.

In a further experiment the target is T2, STAT6 (Homo sapiens, UniProt P42226).
T2 sequence (P42226 1-847): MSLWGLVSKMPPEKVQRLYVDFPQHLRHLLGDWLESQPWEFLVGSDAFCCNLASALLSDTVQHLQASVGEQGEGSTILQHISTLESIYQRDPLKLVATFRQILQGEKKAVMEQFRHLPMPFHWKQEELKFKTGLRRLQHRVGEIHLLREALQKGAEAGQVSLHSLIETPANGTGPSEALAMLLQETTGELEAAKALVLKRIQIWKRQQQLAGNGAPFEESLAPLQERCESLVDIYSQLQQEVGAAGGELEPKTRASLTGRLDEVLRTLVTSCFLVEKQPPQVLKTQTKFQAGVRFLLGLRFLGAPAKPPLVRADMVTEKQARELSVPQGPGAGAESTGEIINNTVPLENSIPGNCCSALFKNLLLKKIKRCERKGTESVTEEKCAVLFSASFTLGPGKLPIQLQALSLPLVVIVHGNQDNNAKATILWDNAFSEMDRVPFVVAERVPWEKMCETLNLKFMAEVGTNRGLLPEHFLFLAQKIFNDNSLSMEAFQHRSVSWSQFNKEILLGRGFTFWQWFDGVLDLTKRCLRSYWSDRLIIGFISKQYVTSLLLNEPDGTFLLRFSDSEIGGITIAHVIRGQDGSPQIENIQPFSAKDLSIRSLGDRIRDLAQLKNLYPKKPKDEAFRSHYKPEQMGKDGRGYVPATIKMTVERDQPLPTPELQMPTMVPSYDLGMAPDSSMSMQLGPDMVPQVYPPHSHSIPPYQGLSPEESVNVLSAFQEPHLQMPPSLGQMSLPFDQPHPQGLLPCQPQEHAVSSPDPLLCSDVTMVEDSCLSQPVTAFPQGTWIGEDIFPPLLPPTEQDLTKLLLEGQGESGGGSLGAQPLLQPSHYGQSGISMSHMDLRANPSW
Briefly: Competitive fluorescence polarization (FP) assay, STAT6. In kind it is binding. As to conditions: no reducing agent, 1 h. As for the experimental part:
as §1, §2, §3, §4, §5
as §6, with “where applicable, at pH 8.0. Proteins were incubated with compound for 1 h at room temperature before adding peptide and incubating for a further 1 h. FP was measured using an Infinite F500 plate reader (Tecan) and measurements were converted into percent inhibition according to” for “where”

The mark [1] stands for this setting: no reducing agent, 1 h, read-out: IC50 STAT4 (FP assay).

Read-outs that look alike come from different tables or passages of the source.

Broadly, the IC50 is the concentration that gives 50% inhibition. As for `Cc1nc(/N=N/c2cc(S(=O)(=O)O)ccc2S(=O)(=O)O)c(COP(=O)(O)O)c(C=O)c1O` [iso‐PPADS], the half-maximal inhibitory concentration (IC50) on STAT4 (setting [1]) was 1900 ± 200 nM; at STAT6, 66000 ± 12000 nM.
For the compound `Cc1nc(/N=N/c2ccc(S(=O)(=O)O)cc2S(=O)(=O)O)c(COP(=O)(O)O)c(C=O)c1O` [PPADS, pyridoxalphosphate‐6‐azophenyl‐2',4'‐disulfonic acid], the IC50 on STAT4 (IC50 STAT4 (FP assay), 1 mM DTT, 1 hr) came out at 1700 ± 300 nM; on STAT4 (IC50 STAT4 (FP assay), 1 mM DTT, 2 hr), 2500 ± 400 nM; on STAT4 (IC50 STAT4 (FP assay), 1 mM DTT, 3 hr), 3700 ± 600 nM; at STAT4 (IC50 STAT4 (FP assay), 1 mM DTT, 4 hr), 4900 ± 900 nM; at STAT4 (IC50 STAT4 (FP assay), 1 mM TCEP, 1 hr), 2400 ± 300 nM; on STAT4 (IC50 STAT4 (FP assay), 1 mM TCEP, 2 hr), 2400 ± 200 nM. Also, the IC50 came out at 2500 ± 400 nM at STAT4 (IC50 STAT4 (FP assay), 1 mM TCEP, 3 hr); 2800 ± 500 nM at STAT4 (IC50 STAT4 (FP assay), 1 mM TCEP, 4 hr); 2200 ± 200 nM on STAT4 (setting [1]); 2400 ± 300 nM at STAT4 (no reducing agent, 2 hr, read-out: IC50 STAT4 (FP assay), no reducing agent); 2600 ± 300 nM at STAT4 (no reducing agent, 3 hr, read-out: IC50 STAT4 (FP assay), no reducing agent); 2400 ± 100 nM on STAT4 (no reducing agent, 4 hr, read-out: IC50 STAT4 (FP assay), no reducing agent). At STAT6, this compound displayed an IC50 of 20100 ± 4600 nM.

These data come from PMC12442245, “Activity Analysis of the P2X Receptor Antagonist PPADS against Signal Transducer and Activator of Transcription Proteins” (Chembiochem, 2025).
